Test results: patent US20220218852A1, “NOVEL RADIOLABELLED CXCR4-TARGETING COMPOUNDS FOR DIAGNOSIS AND THERAPY” (PROVINCIAL HEALTH SERVICES AUTHORITY, priority 2019, published 2022)
Read-outs that look alike come from different tables or passages of the source. Positions of bridges follow the written chain, without caps; N, C: chain ends. Non-standard residues stand in square brackets, D forms with d. Residues, ends and D or L forms follow the SMILES beside them. Groups on a side chain read outwards from the residue. *: point of attachment. DOTA = O=C(O)CN1CCN(CC(=O)O)CCN(CC(=O)*)CCN(CC(=O)O)CC1; 2Nal = N[C@@H](Cc1ccc2ccccc2c1)C(=O)O; Lys(iPr) = CC(C)NCCCC[C@H](N)C(=O)O

How the values were obtained:
[1] = Biodistribution in Z138 tumor-bearing mice; format: in vivo; details: male, mouse, iv, total radioactivity
Protocol: (§1) For Daudi, Z138, GRANTA519 and Jeko1 xenografts, male NOD.Cg-Rag1^tm1MomII2rg^tm1Wjl/SzJ (NRG) mice were subcutaneously inoculated on the left flank with 5×10^6 cells (100 μL; 1:1 ratio of PBS/Matrigel) and tumors were grown to a size of 200-500 mm^3. For PC-3 xenografts, male NOD.Cg-Rag1^tm1MomII2rg^tm1Wjl/SzJ (NRG) mice were subcutaneously inoculated on the left flank with 5×10^6 PC-3 cells (100 μL; 1:1 ratio of PBS/Matrigel) and tumors were grown to a size of 200-400 mm^3.
(§2) The mice were euthanized via CO2 inhalation while anesthetized with isoflurane. Tissues were harvested, washed in PBS, blotted dry, weighed, and measured on a Hidex AMG Automatic Gamma Counter.

[2] = system: Z138 mantle cell lymphoma xenografts; assay: Biodistribution in Z138 tumor-bearing mice; format: in vivo
Protocol: as §1, §2

[3] = NOD.Cg-Rag1^tm1MomII2rg^tm1Wjl/SzJ (NRG), blood, read-out: Biodistribution Blood
[4] = NOD.Cg-Rag1^tm1MomII2rg^tm1Wjl/SzJ (NRG), bone, read-out: Biodistribution Bone
[5] = NOD.Cg-Rag1^tm1MomII2rg^tm1Wjl/SzJ (NRG), brain, read-out: Biodistribution Brain
[6] = NOD.Cg-Rag1^tm1MomII2rg^tm1Wjl/SzJ (NRG), fat, read-out: Biodistribution Fat
[7] = NOD.Cg-Rag1^tm1MomII2rg^tm1Wjl/SzJ (NRG), intestine, read-out: Biodistribution Intestine
[8] = NOD.Cg-Rag1^tm1MomII2rg^tm1Wjl/SzJ (NRG), stomach, read-out: Biodistribution Stomach
[9] = NOD.Cg-Rag1^tm1MomII2rg^tm1Wjl/SzJ (NRG), testes, read-out: Biodistribution Testes
[10] = NOD.Cg-Rag1^tm1MomII2rg^tm1Wjl/SzJ (NRG), tumour (Z138 xenograft), read-out: Biodistribution Z138 (tumour)
[11] = NOD.Cg-Rag1tm1Mom Il2rgtm1Wjl/SzJ (NRG), adrenals, read-out: Biodistribution Adrenals
[12] = NOD.Cg-Rag1tm1Mom Il2rgtm1Wjl/SzJ (NRG), heart, read-out: Biodistribution Heart
[13] = NOD.Cg-Rag1tm1Mom Il2rgtm1Wjl/SzJ (NRG), kidney, read-out: Biodistribution Kidney
[14] = NOD.Cg-Rag1tm1Mom Il2rgtm1Wjl/SzJ (NRG), liver, read-out: Biodistribution Liver
[15] = NOD.Cg-Rag1tm1Mom Il2rgtm1Wjl/SzJ (NRG), lung, read-out: Biodistribution Lung
[16] = NOD.Cg-Rag1tm1Mom Il2rgtm1Wjl/SzJ (NRG), muscle, read-out: Biodistribution Muscle
[17] = NOD.Cg-Rag1tm1Mom Il2rgtm1Wjl/SzJ (NRG), pancreas, read-out: Biodistribution Pancreas
[18] = NOD.Cg-Rag1tm1Mom Il2rgtm1Wjl/SzJ (NRG), spleen, read-out: Biodistribution Spleen

## CC(C)NCCCC[C@@H]1NC(=O)[C@H](Cc2ccc(O)cc2)NC(=O)[C@H](Cc2ccccc2)NC(=O)CC[C@H](C(=O)N[C@@H](CCCCNC(C)C)C(=O)N[C@@H](CCCCNC(=O)[C@H](CCC(=O)O)NC(=O)[C@H](CCC(=O)O)NC(=O)[C@H](CCC(=O)O)NC(=O)CN2CCN(CC(=O)O)CCN(CC(=O)O)CCN(CC(=O)O)CC2)C(N)=O)NC(=O)CNC(=O)[C@H](Cc2ccc3ccccc3c2)NC(=O)[C@@H](CCCNC(=N)N)NC1=O [[^177Lu]Lu-BL02, metal not drawn] (FY[Lys(iPr)][dR][2Nal]G[dE][Lys(iPr)]K([Glu-Glu-Glu-DOTA])-NH2; lactam N-7)
[1]; NOD.Cg-Rag1^tm1MomII2rg^tm1Wjl/SzJ (NRG), blood, 1 h, read-out: Biodistribution Blood
  tissue uptake at 1 h: 0.44 %ID/g
[1]; [3]
  tissue uptake at 4 h: 0.03 %ID/g
  tissue uptake at 24 h: 0.01 %ID/g
  tissue uptake at 72 h: 0.007 %ID/g
[1]; NOD.Cg-Rag1^tm1MomII2rg^tm1Wjl/SzJ (NRG), blood, with LY2510924 7.5 μg i.p. 15 min before radiotracer, 1 h blocked, read-out: Biodistribution Blood
  tissue uptake at 1 h: 2.06 %ID/g
[1]; NOD.Cg-Rag1^tm1MomII2rg^tm1Wjl/SzJ (NRG), bone, 1 h, read-out: Biodistribution Bone
  tissue uptake at 1 h: 0.25 %ID/g
[1]; [4]
  tissue uptake at 4 h: 0.11 %ID/g
  tissue uptake at 24 h: 0.085 %ID/g
  tissue uptake at 72 h: 0.053 %ID/g
[1]; NOD.Cg-Rag1^tm1MomII2rg^tm1Wjl/SzJ (NRG), bone, 1 h blocked, read-out: Biodistribution Bone
  tissue uptake at 1 h: 0.49 %ID/g
[1]; NOD.Cg-Rag1^tm1MomII2rg^tm1Wjl/SzJ (NRG), brain, 1 h, read-out: Biodistribution Brain
  tissue uptake at 1 h: 0.02 %ID/g
[1]; NOD.Cg-Rag1^tm1MomII2rg^tm1Wjl/SzJ (NRG), brain, 1 h blocked, read-out: Biodistribution Brain
  tissue uptake at 1 h: 0.04 %ID/g
[1]; [5]
  tissue uptake at 4 h: 0.01 %ID/g
  tissue uptake at 24 h: 0.003 %ID/g
  tissue uptake at 72 h: 0.001 %ID/g
[1]; NOD.Cg-Rag1^tm1MomII2rg^tm1Wjl/SzJ (NRG), fat, 1 h, read-out: Biodistribution Fat
  tissue uptake at 1 h: 0.07 %ID/g
[1]; [6]
  tissue uptake at 4 h: 0.03 %ID/g
  tissue uptake at 24 h: 0.011 %ID/g
  tissue uptake at 72 h: 0.008 %ID/g
[1]; NOD.Cg-Rag1^tm1MomII2rg^tm1Wjl/SzJ (NRG), fat, with LY2510924 7.5 μg i.p. 15 min before radiotracer, 1 h blocked, read-out: Biodistribution Fat
  tissue uptake at 1 h: 0.19 %ID/g
[1]; NOD.Cg-Rag1^tm1MomII2rg^tm1Wjl/SzJ (NRG), intestine, 1 h, read-out: Biodistribution Intestine
  tissue uptake at 1 h: 0.27 %ID/g
[1]; NOD.Cg-Rag1^tm1MomII2rg^tm1Wjl/SzJ (NRG), intestine, 1 h blocked, read-out: Biodistribution Intestine
  tissue uptake at 1 h: 0.75 %ID/g
[1]; [7]
  tissue uptake at 4 h: 0.09 %ID/g
  tissue uptake at 24 h: 0.126 %ID/g
  tissue uptake at 72 h: 0.023 %ID/g
[1]; NOD.Cg-Rag1^tm1MomII2rg^tm1Wjl/SzJ (NRG), stomach, 1 h, read-out: Biodistribution Stomach
  tissue uptake at 1 h: 0.12 %ID/g
[1]; NOD.Cg-Rag1^tm1MomII2rg^tm1Wjl/SzJ (NRG), stomach, 1 h blocked, read-out: Biodistribution Stomach
  tissue uptake at 1 h: 0.2 %ID/g
[1]; [8]
  tissue uptake at 4 h: 0.07 %ID/g
  tissue uptake at 24 h: 0.052 %ID/g
  tissue uptake at 72 h: 0.022 %ID/g
[1]; NOD.Cg-Rag1^tm1MomII2rg^tm1Wjl/SzJ (NRG), testes, 1 h, read-out: Biodistribution Testes
  tissue uptake at 1 h: 0.18 %ID/g
[1]; [9]
  tissue uptake at 4 h: 0.04 %ID/g
  tissue uptake at 24 h: 0.032 %ID/g
  tissue uptake at 72 h: 0.029 %ID/g
[1]; NOD.Cg-Rag1^tm1MomII2rg^tm1Wjl/SzJ (NRG), testes, with LY2510924 7.5 μg i.p. 15 min before radiotracer, 1 h blocked, read-out: Biodistribution Testes
  tissue uptake at 1 h: 0.39 %ID/g
[1]; NOD.Cg-Rag1^tm1MomII2rg^tm1Wjl/SzJ (NRG), tumour (Z138 xenograft), 1 h, read-out: Biodistribution Z138 (tumour)
  tissue uptake at 1 h: 17.2 %ID/g
[1]; NOD.Cg-Rag1^tm1MomII2rg^tm1Wjl/SzJ (NRG), tumour (Z138 xenograft), 1 h blocked, read-out: Biodistribution Z138 (tumour)
  tissue uptake at 1 h: 3.75 %ID/g
[1]; [10]
  tissue uptake at 4 h: 15.6 %ID/g
  tissue uptake at 24 h: 8.79 %ID/g
  tissue uptake at 72 h: 3.57 %ID/g
[1]; NOD.Cg-Rag1tm1Mom Il2rgtm1Wjl/SzJ (NRG), adrenals, 1 h, read-out: Biodistribution Adrenals
  tissue uptake at 1 h: 0.46 %ID/g
[1]; NOD.Cg-Rag1tm1Mom Il2rgtm1Wjl/SzJ (NRG), adrenals, 1 h blocked, read-out: Biodistribution Adrenals
  tissue uptake at 1 h: 0.47 %ID/g
[1]; [11]
  tissue uptake at 4 h: 0.13 %ID/g
  tissue uptake at 24 h: 0.117 %ID/g
  tissue uptake at 72 h: 0.073 %ID/g
[1]; NOD.Cg-Rag1tm1Mom Il2rgtm1Wjl/SzJ (NRG), heart, 1 h, read-out: Biodistribution Heart
  tissue uptake at 1 h: 0.18 %ID/g
[1]; NOD.Cg-Rag1tm1Mom Il2rgtm1Wjl/SzJ (NRG), heart, 1 h blocked, read-out: Biodistribution Heart
  tissue uptake at 1 h: 0.46 %ID/g
[1]; [12]
  tissue uptake at 4 h: 0.05 %ID/g
  tissue uptake at 24 h: 0.035 %ID/g
  tissue uptake at 72 h: 0.022 %ID/g
[1]; NOD.Cg-Rag1tm1Mom Il2rgtm1Wjl/SzJ (NRG), kidney, 1 h, read-out: Biodistribution Kidney
  tissue uptake at 1 h: 3.87 %ID/g
[1]; NOD.Cg-Rag1tm1Mom Il2rgtm1Wjl/SzJ (NRG), kidney, 1 h blocked, read-out: Biodistribution Kidney
  tissue uptake at 1 h: 10.9 %ID/g
[1]; [13]
  tissue uptake at 4 h: 3.27 %ID/g
  tissue uptake at 24 h: 1.43 %ID/g
  tissue uptake at 72 h: 0.56 %ID/g
[1]; NOD.Cg-Rag1tm1Mom Il2rgtm1Wjl/SzJ (NRG), liver, 1 h, read-out: Biodistribution Liver
  tissue uptake at 1 h: 0.93 %ID/g
[1]; NOD.Cg-Rag1tm1Mom Il2rgtm1Wjl/SzJ (NRG), liver, 1 h blocked, read-out: Biodistribution Liver
  tissue uptake at 1 h: 0.99 %ID/g
[1]; [14]
  tissue uptake at 4 h: 0.92 %ID/g
  tissue uptake at 24 h: 0.703 %ID/g
  tissue uptake at 72 h: 0.436 %ID/g
[1]; NOD.Cg-Rag1tm1Mom Il2rgtm1Wjl/SzJ (NRG), lung, 1 h, read-out: Biodistribution Lung
  tissue uptake at 1 h: 0.83 %ID/g
[1]; NOD.Cg-Rag1tm1Mom Il2rgtm1Wjl/SzJ (NRG), lung, 1 h blocked, read-out: Biodistribution Lung
  tissue uptake at 1 h: 1.57 %ID/g
[1]; [15]
  tissue uptake at 4 h: 0.26 %ID/g
  tissue uptake at 24 h: 0.176 %ID/g
  tissue uptake at 72 h: 0.184 %ID/g
[1]; NOD.Cg-Rag1tm1Mom Il2rgtm1Wjl/SzJ (NRG), muscle, 1 h, read-out: Biodistribution Muscle
  tissue uptake at 1 h: 0.1 %ID/g
[1]; NOD.Cg-Rag1tm1Mom Il2rgtm1Wjl/SzJ (NRG), muscle, 1 h blocked, read-out: Biodistribution Muscle
  tissue uptake at 1 h: 0.45 %ID/g
[1]; [16]
  tissue uptake at 4 h: 0.03 %ID/g
  tissue uptake at 24 h: 0.019 %ID/g
  tissue uptake at 72 h: 0.01 %ID/g
[1]; NOD.Cg-Rag1tm1Mom Il2rgtm1Wjl/SzJ (NRG), pancreas, 1 h, read-out: Biodistribution Pancreas
  tissue uptake at 1 h: 0.14 %ID/g
[1]; NOD.Cg-Rag1tm1Mom Il2rgtm1Wjl/SzJ (NRG), pancreas, 1 h blocked, read-out: Biodistribution Pancreas
  tissue uptake at 1 h: 0.31 %ID/g
[1]; [17]
  tissue uptake at 4 h: 0.04 %ID/g
  tissue uptake at 24 h: 0.034 %ID/g
  tissue uptake at 72 h: 0.016 %ID/g
[1]; NOD.Cg-Rag1tm1Mom Il2rgtm1Wjl/SzJ (NRG), spleen, 1 h, read-out: Biodistribution Spleen
  tissue uptake at 1 h: 0.56 %ID/g
[1]; NOD.Cg-Rag1tm1Mom Il2rgtm1Wjl/SzJ (NRG), spleen, 1 h blocked, read-out: Biodistribution Spleen
  tissue uptake at 1 h: 0.56 %ID/g
[1]; [18]
  tissue uptake at 4 h: 0.33 %ID/g
  tissue uptake at 24 h: 0.277 %ID/g
  tissue uptake at 72 h: 0.288 %ID/g
[2]; 1 h
  Ratio Tumour:Blood: 38.98
  Ratio Tumour:Bone: 74.82
  Ratio Tumour:Liver: 18.53
  Ratio Tumour:Lung: 21.08
  Ratio Tumour:Muscle: 166.59
  Ratio Tumour:Spleen: 33.05
[2]; 1 h blocked
  Ratio Tumour:Blood: 2.74
  Ratio Tumour:Bone: 9.53
  Ratio Tumour:Liver: 3.84
  Ratio Tumour:Lung: 2.75
  Ratio Tumour:Muscle: 13.22
  Ratio Tumour:Spleen: 6.87
[2]; 4 h
  Ratio Tumour:Blood: 627.62
  Ratio Tumour:Bone: 145.11
  Ratio Tumour:Liver: 16.93
  Ratio Tumour:Lung: 60.62
  Ratio Tumour:Muscle: 503.09
  Ratio Tumour:Spleen: 49.43
[2]; 24 h
  Ratio Tumour:Blood: 873.49
  Ratio Tumour:Bone: 109.48
  Ratio Tumour:Liver: 12.51
  Ratio Tumour:Lung: 52.72
  Ratio Tumour:Muscle: 463.22
  Ratio Tumour:Spleen: 31.90
[2]; 72 h
  Ratio Tumour:Blood: 613.24
